Measurements published in ChEMBL document CHEMBL5543094, “Exploration of P1 and P4 modifications of nirmatrelvir: Design, synthesis, biological evaluation, and X-ray structural studies of SARS-CoV-2 Mpro inhibitors” (Eur J Med Chem, 2024).
pEC50: −log10 of the molar value.

How the values were obtained:
Format in all cases: functional, organism-based
SARS-CoV-2 [1] = test: Antiviral activity against SARS-CoV-2 Wuhan 5-2N variant infected in African green monkey Vero E6 cells measured 3 days post infection by WST-8 assay; details: Severe acute respiratory syndrome coronavirus 2, Wuhan 5-2N, Vero C1008, 72 h
SARS-CoV-2 [2] = test: Antiviral activity against SARS-CoV-2 Delta K1734 variant infected in African green monkey Vero E6 cells measured 3 days post infection by WST-8 assay; details: Severe acute respiratory syndrome coronavirus 2, Delta K1734, Vero C1008, 72 h
SARS-CoV-2 [3] = test: Antiviral activity against SARS-CoV-2 Gamma TY7 variant infected in African green monkey Vero E6 cells measured 3 days post infection by WST-8 assay; details: Severe acute respiratory syndrome coronavirus 2, Gamma TY7, Vero C1008, 72 h
SARS-CoV-2 [4] = test: Antiviral activity against SARS-CoV-2 Omicron 929 variant infected in African green monkey Vero E6 cells measured 7 days post infection by WST-8 assay; details: Severe acute respiratory syndrome coronavirus 2, Omicron 929, Vero C1008, 168 h
SARS-CoV-2 [5] = test: Antiviral activity against SARS-CoV-2 Beta TY8 variant infected in African green monkey Vero E6 cells measured 3 days post infection by WST-8 assay; details: Severe acute respiratory syndrome coronavirus 2, Beta TY8, Vero C1008, 72 h
SARS-CoV-2 [6] = test: Antiviral activity against SARS-CoV-2 Alpha QK002 variant infected in African green monkey Vero E6 cells measured 3 days post infection by WST-8 assay; details: Severe acute respiratory syndrome coronavirus 2, Alpha QK002, Vero C1008, 72 h

CCC(CC)COC(=O)[C@H](C)N[P@](=O)(OC[C@H]1O[C@@](C#N)(c2ccc3c(N)ncnn23)[C@H](O)[C@@H]1O)Oc1ccccc1
pEC50 (SARS-CoV-2 [1]): 5.42
pEC50 (SARS-CoV-2 [2]): 5.54
pEC50 (SARS-CoV-2 [3]): 5.59
pEC50 (SARS-CoV-2 [4]): 5.38
pEC50 (SARS-CoV-2 [5]): 5.55
pEC50 (SARS-CoV-2 [6]): 5.46

CC(C)(C)[C@H](NC(=O)C(F)(F)F)C(=O)N1C[C@H]2[C@@H]([C@H]1C(=O)N[C@H](C#N)C[C@@H]1CCNC1=O)C2(C)C
pEC50 (SARS-CoV-2 [1]): 5.52
pEC50 (SARS-CoV-2 [2]): 5.54
pEC50 (SARS-CoV-2 [3]): 5.40
pEC50 (SARS-CoV-2 [4]): 5.51
pEC50 (SARS-CoV-2 [5]): 5.43
pEC50 (SARS-CoV-2 [6]): 5.60

CC(C)(C)[C@H](NC(=O)C(Cl)(Cl)Cl)C(=O)N1C[C@H]2[C@@H]([C@H]1C(=O)N[C@H](C#N)C[C@@H]1CCCNC1=O)C2(C)C
pEC50 (SARS-CoV-2 [1]): 6.15
pEC50 (SARS-CoV-2 [2]): 6.22
pEC50 (SARS-CoV-2 [3]): 5.70
pEC50 (SARS-CoV-2 [4]): 5.40
pEC50 (SARS-CoV-2 [5]): 5.62
pEC50 (SARS-CoV-2 [6]): 6.10
